What was measured:
Conditions in all cases: exposure time: 72 h
E57 [1] = patient-derived glioblastoma stem cells of mesenchymal subtype; assay: phenotypic distance (Euclidean, principal components) from DMSO controls (arbitrary units); higher = stronger morphological change
FT3469 [2] = normal neural stem cell line; assay: as above
E13 [3] = patient-derived glioblastoma stem cells of classical subtype; assay: as above
E28 [4] = patient-derived glioblastoma stem cells of classical subtype; assay: as above
E31 [5] = patient-derived glioblastoma stem cells of proneural subtype; assay: as above
E34 [6] = patient-derived glioblastoma stem cells of proneural subtype; assay: as above
E21 [7] = patient-derived glioblastoma stem cells of mesenchymal subtype; assay: as above
E57 [8] = assay: surviving fraction (nuclei count normalised to DMSO); higher = more cells surviving (less toxic)
FT3469 [9] = assay: as above
E13 [10] = assay: as above
E28 [11] = assay: as above
E31 [12] = assay: as above
E34 [13] = assay: as above
E21 [14] = assay: as above
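For phenotypic distance (Euclidean, principal components) from DMSO controls in this document: cell Painting imaging in 384-well plates, CellProfiler features reduced to at least 20 principal components, Euclidean distance versus same-plate DMSO vehicle wells (0.1% v/v), median over six images per well.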
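For surviving fraction (nuclei count normalised to DMSO) in this document: nuclei counted by high-content imaging of Hoechst-stained cells in laminin-coated 384-well plates, relative to 0.1% DMSO vehicle wells, with staurosporine as cell-death control.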

COc1ccc([C@@H]2CC(=O)c3c(O)cc(O[C@@H]4O[C@H](CO[C@@H]5O[C@@H](C)[C@H](O)[C@@H](O)[C@H]5O)[C@@H](O)[C@H](O)[C@H]4O)cc3O2)cc1O [Hesperidin]
Conditions	phenotypic distance	surviving fraction
E13 [3], 4.1 nM	0.619	–
E13 [3], 12.3 nM	0.532	–
E13 [3], 37 nM	0.507	–
E13 [3], 111.1 nM	0.462	–
E13 [3], 333.3 nM	0.682	–
E13 [3], 1000 nM	0.572	–
E13 [3], 3000 nM	0.438	–
E13 [10], 4.1 nM	–	0.863
E13 [10], 12.3 nM	–	0.95
E13 [10], 37 nM	–	0.946
E13 [10], 111.1 nM	–	0.963
E13 [10], 333.3 nM	–	0.941
E13 [10], 1000 nM	–	1.04
E13 [10], 3000 nM	–	0.96
E21 [7], 4.1 nM	0.723	–
E21 [7], 12.3 nM	1.01	–
E21 [7], 37 nM	0.467	–
E21 [7], 111.1 nM	0.825	–
E21 [7], 333.3 nM	0.905	–
E21 [7], 1000 nM	0.753	–
E21 [7], 3000 nM	1.01	–
E21 [14], 4.1 nM	–	0.916
E21 [14], 12.3 nM	–	0.952
E21 [14], 37 nM	–	0.918
E21 [14], 111.1 nM	–	1.01
E21 [14], 333.3 nM	–	0.971
E21 [14], 1000 nM	–	1.02
E21 [14], 3000 nM	–	0.969
E28 [4], 4.1 nM	0.47	–
E28 [4], 12.3 nM	0.575	–
E28 [4], 37 nM	0.783	–
E28 [4], 111.1 nM	0.619	–
E28 [4], 333.3 nM	0.437	–
E28 [4], 1000 nM	0.666	–
E28 [4], 3000 nM	1.36	–
E28 [11], 4.1 nM	–	1.02
E28 [11], 12.3 nM	–	1.13
E28 [11], 37 nM	–	1.02
E28 [11], 111.1 nM	–	0.97
E28 [11], 333.3 nM	–	1.02
E28 [11], 1000 nM	–	1.13
E28 [11], 3000 nM	–	0.967
E31 [5], 4.1 nM	0.45	–
E31 [5], 12.3 nM	0.684	–
E31 [5], 37 nM	0.77	–
E31 [5], 111.1 nM	0.32	–
E31 [5], 333.3 nM	0.513	–
E31 [5], 1000 nM	0.709	–
E31 [5], 3000 nM	0.756	–
E31 [12], 4.1 nM	–	0.929
E31 [12], 12.3 nM	–	1.11
E31 [12], 37 nM	–	1.1
E31 [12], 111.1 nM	–	0.966
E31 [12], 333.3 nM	–	1.09
E31 [12], 1000 nM	–	1.04
E31 [12], 3000 nM	–	0.936
E34 [6], 4.1 nM	0.666	–
E34 [6], 12.3 nM	0.79	–
E34 [6], 37 nM	0.595	–
E34 [6], 111.1 nM	1.02	–
E34 [6], 333.3 nM	0.595	–
E34 [6], 1000 nM	0.635	–
E34 [6], 3000 nM	0.793	–
E34 [13], 4.1 nM	–	1.02
E34 [13], 12.3 nM	–	0.86
E34 [13], 37 nM	–	0.979
E34 [13], 111.1 nM	–	1.21
E34 [13], 333.3 nM	–	1.01
E34 [13], 1000 nM	–	0.93
E34 [13], 3000 nM	–	1.06
E57 [1], 4.1 nM	0.43	–
E57 [1], 12.3 nM	0.735	–
E57 [1], 37 nM	0.539	–
E57 [1], 111.1 nM	0.532	–
E57 [1], 333.3 nM	0.511	–
E57 [1], 1000 nM	0.762	–
E57 [1], 3000 nM	0.602	–
E57 [8], 4.1 nM	–	1
E57 [8], 12.3 nM	–	1.12
E57 [8], 37 nM	–	0.932
E57 [8], 111.1 nM	–	0.961
E57 [8], 333.3 nM	–	0.943
E57 [8], 1000 nM	–	0.925
E57 [8], 3000 nM	–	0.915
FT3469 [2], 4.1 nM	0.821	–
FT3469 [2], 12.3 nM	1.41	–
FT3469 [2], 37 nM	0.766	–
FT3469 [2], 111.1 nM	1.05	–
FT3469 [2], 333.3 nM	0.567	–
FT3469 [2], 1000 nM	0.989	–
FT3469 [2], 3000 nM	0.744	–
FT3469 [9], 4.1 nM	–	1.13
FT3469 [9], 12.3 nM	–	1.1
FT3469 [9], 37 nM	–	1.05
FT3469 [9], 111.1 nM	–	1.15
FT3469 [9], 333.3 nM	–	0.937
FT3469 [9], 1000 nM	–	1.01
FT3469 [9], 3000 nM	–	0.981

Oc1c(Cl)cc(Cl)c(Cl)c1Cc1c(O)c(Cl)cc(Cl)c1Cl [Hexachlorophene]
Conditions	phenotypic distance	surviving fraction
E13 [3], 4.1 nM	0.81	–
E13 [3], 12.3 nM	0.795	–
E13 [3], 37 nM	3	–
E13 [3], 111.1 nM	0.903	–
E13 [3], 333.3 nM	3.34	–
E13 [3], 1000 nM	1.8	–
E13 [3], 3000 nM	3.77	–
E13 [10], 4.1 nM	–	0.829
E13 [10], 12.3 nM	–	0.908
E13 [10], 37 nM	–	0.957
E13 [10], 111.1 nM	–	0.796
E13 [10], 333.3 nM	–	0.826
E13 [10], 1000 nM	–	0.68
E13 [10], 3000 nM	–	0.367
E21 [7], 4.1 nM	1	–
E21 [7], 12.3 nM	0.629	–
E21 [7], 37 nM	1.26	–
E21 [7], 111.1 nM	0.988	–
E21 [7], 333.3 nM	1.51	–
E21 [7], 1000 nM	2.2	–
E21 [7], 3000 nM	4.77	–
E21 [14], 4.1 nM	–	0.928
E21 [14], 12.3 nM	–	0.925
E21 [14], 37 nM	–	0.965
E21 [14], 111.1 nM	–	0.903
E21 [14], 333.3 nM	–	0.964
E21 [14], 1000 nM	–	0.762
E21 [14], 3000 nM	–	0.552
E28 [4], 4.1 nM	1.12	–
E28 [4], 12.3 nM	0.421	–
E28 [4], 37 nM	0.961	–
E28 [4], 111.1 nM	0.709	–
E28 [4], 333.3 nM	0.784	–
E28 [4], 1000 nM	1.11	–
E28 [4], 3000 nM	1.45	–
E28 [11], 4.1 nM	–	0.954
E28 [11], 12.3 nM	–	1.03
E28 [11], 37 nM	–	1.04
E28 [11], 111.1 nM	–	0.884
E28 [11], 333.3 nM	–	1.04
E28 [11], 1000 nM	–	0.839
E28 [11], 3000 nM	–	0.748
E31 [5], 4.1 nM	0.745	–
E31 [5], 12.3 nM	0.7	–
E31 [5], 37 nM	0.853	–
E31 [5], 111.1 nM	0.867	–
E31 [5], 333.3 nM	1.39	–
E31 [5], 1000 nM	1.83	–
E31 [5], 3000 nM	3.79	–
E31 [12], 4.1 nM	–	0.956
E31 [12], 12.3 nM	–	0.937
E31 [12], 37 nM	–	1.03
E31 [12], 111.1 nM	–	0.964
E31 [12], 333.3 nM	–	1.03
E31 [12], 1000 nM	–	1.18
E31 [12], 3000 nM	–	0.648
E34 [6], 4.1 nM	0.861	–
E34 [6], 12.3 nM	0.839	–
E34 [6], 37 nM	0.672	–
E34 [6], 111.1 nM	0.741	–
E34 [6], 333.3 nM	1.14	–
E34 [6], 1000 nM	2.31	–
E34 [6], 3000 nM	3.14	–
E34 [13], 4.1 nM	–	0.818
E34 [13], 12.3 nM	–	0.897
E34 [13], 37 nM	–	1
E34 [13], 111.1 nM	–	0.845
E34 [13], 333.3 nM	–	0.754
E34 [13], 1000 nM	–	0.721
E34 [13], 3000 nM	–	0.448
E57 [1], 4.1 nM	0.958	–
E57 [1], 12.3 nM	0.865	–
E57 [1], 37 nM	1	–
E57 [1], 111.1 nM	1.03	–
E57 [1], 333.3 nM	2.28	–
E57 [1], 1000 nM	3.09	–
E57 [1], 3000 nM	6.18	–
E57 [8], 4.1 nM	–	0.988
E57 [8], 12.3 nM	–	1.11
E57 [8], 37 nM	–	0.949
E57 [8], 111.1 nM	–	0.977
E57 [8], 333.3 nM	–	0.908
E57 [8], 1000 nM	–	0.776
E57 [8], 3000 nM	–	0.396
FT3469 [2], 4.1 nM	0.687	–
FT3469 [2], 12.3 nM	1.29	–
FT3469 [2], 37 nM	0.725	–
FT3469 [2], 111.1 nM	0.625	–
FT3469 [2], 333.3 nM	1.47	–
FT3469 [2], 1000 nM	1.56	–
FT3469 [2], 3000 nM	2.68	–
FT3469 [9], 4.1 nM	–	0.963
FT3469 [9], 12.3 nM	–	0.887
FT3469 [9], 37 nM	–	1.07
FT3469 [9], 111.1 nM	–	0.895
FT3469 [9], 333.3 nM	–	0.922
FT3469 [9], 1000 nM	–	0.792
FT3469 [9], 3000 nM	–	0.648
